From patent US6713266B1 (Isodiagnostika Inc., priority 1998, dated 2004)

Columns and labels:
[1] = tested on: Mouse polyclonal sera (CSA-DVS-KLH immunogen); assay: Inhibition ELISA, CSA-DVS-HSA coated plate, mouse polyclonal sera; format: binding
Procedure: (§1) Inhibition ELISA Protocol:
(§2) 1. Use Falcon Pro-bind immunoplates.
(§3) 2. Dilute coating antigen to 1 μg/mL in carbonate-bicarbonate buffer. Add 100 μL per well and incubate overnight at 4° C.
(§4) 3. On the same day prepare inhibiting antigen tubes. Aliquot antibodies into glass test tubes. Prepare appropriate antigen concentration in ethanol and add to aliquoted antibody at 10 μL ethanol solution/250 μL antibody. Vortex tubes and incubate overnight at 4° C.
(§5) 4. Shake out wells and wash 3× with 200 μL PBS/0.05% TWEEN™ (polyoxyethylene-sorbitol) (v/v) per well.
(§6) 5. Add 200 μL blocking buffer per well (PBS/2% BSA (w/v)). Incubate 60 min at room temperature.
(§7) 7. Transfer contents of inhibition tubes to antigen-coated plate, 100 μL per well. Incubate 60 min at 37° C.
(§8) 9. […] Add 100 μL per well and incubate at 37° C. for 60 min.
(§9) 11. […] Add 100 μL per well and incubate in the dark at room temperature. Absorbance can be read at 405 nm at approximately 15-min intervals.

[2] = tested on: Mouse polyclonal sera (AM1-DVS-KLH immunogens); assay: Antigen panel (direct) ELISA, mouse polyclonal sera; format: binding
Procedure: (§10) 1. Use Falcon Pro-bind immunoplate.
(§11) 2. Dilute coating antigen (Ag) to 1.0 μg/mL in carbonate-bicarbonate buffer. Use glass tubes.
(§12) 3. Add 100 μL to each well of plate. Store overnight at 4° C.
as §5
(§13) 5. Add blocking buffer, 200 μL per well (PBS/2% BSA (w/v)). Incubate for 60 min at 37° C.
(§14) 7. Add 100 μL per well of test antibody appropriately diluted in PBS/0.1% Tween (v/v). Incubate 60 min at 37° C.
(§15) 9. Dilute alkaline phosphatase conjugated anti-mouse IgG (Pierce cat #31322) in PBS/0.1% TWEEN™ (polyoxyethylene-sorbitol) (v/v) to 1:2000 concentration. Add 100 μL per well and incubate at 37° C. for 60 min.
(§16) 10. Wash 3× as in step 4.
as §9

[3] = tested on: Mouse polyclonal sera (AM19-9-DVS-KLH immunogens); assay: as above; format: binding
Procedure: as §10, §11, §12, §5, §13, §14, §15, §16, §9

[4] = tested on: Mouse polyclonal sera (AM9-9-DVS-KLH immunogen); assay: as above; format: binding
Procedure: as §10, §11, §12, §5, §13, §14, §15, §16, §9

[5] = tested on: Mouse polyclonal sera (CSA-DVS-KLH immunogen); assay: as above; format: binding; settings: KLH coated ELISA plates
Procedure: as §10, §11, §12, §5, §13, §14, §15, §16, §9

[6] = tested on: Mouse polyclonal sera (AM1-DVS-KLH immunogen); assay: Inhibition ELISA to the CSA-DVS-HSA conjugate, mouse polyclonal sera; format: binding
Procedure: as §1, §2, §3, §4, §5, §6, §7, §8, §9

[7] = tested on: Mouse polyclonal sera (AM19-1-DVS (1) - KLH immunogen); assay: Antigen panel (direct) ELISA, mouse polyclonal sera; format: binding; settings: Mice 1 and 2
Procedure: as §10, §11, §12, §5, §13, §14, §15, §16, §9
(§17) These serum samples were assayed by direct ELISA for antibody titre to specific haptens.

[8] = tested on: Mouse polyclonal sera (AM19-1-DVS (2) - KLH immunogen); assay: as above; format: binding; settings: Mice 3 and 4
Procedure: as §10, §11, §12, §5, §13, §14, §15, §16, §9, §17

[9] = tested on: Mouse polyclonal sera (AM19-1-DVS (1) - KLH immunogen); assay: Inhibition ELISA, AM19-1-DVS (1) HSA coated plate, mouse polyclonal sera; format: binding
Procedure: as §1, §2, §3, §4, §5, §6, §7, §8, §9

[10] = tested on: Mouse polyclonal sera (AM19-1-DVS (2) - KLH immunogen); assay: Inhibition ELISA, AM19-1-DVS (2) HSA coated plate, mouse polyclonal sera; format: binding
Procedure: as §1, §2, §3, §4, §5, §6, §7, §8, §9

[11] = tested on: Rabbit polyclonal sera (AM19-1-DVS-KLH (1) immunogen); assay: Inhibition ELISA, AM19-1-DVS (1) HSA coated plate, rabbit polyclonal sera; format: binding
Procedure: as §1, §2, §3, §4, §5, §6, §7, §8, §9
The AM19-1-DVS (1) conjugate was also used to immunize rabbits.

[12] = tested on: Mouse polyclonal sera (AM19-9-DVS-KLH immunogen); assay: Inhibition ELISA, AM19-9-DVS-HSA coated plates, mouse polyclonal sera; format: binding
Procedure: as §1, §2, §3, §4, §5, §6, §7, §8, §9

[13] = tested on: Mouse polyclonal sera (AM9-9-DVS-KLH immunogen); assay: Inhibition ELISA, AM19-9-DVS-HSA coated plate, mouse polyclonal sera; format: binding
Procedure: as §1, §2, §3, §4, §5, §6, §7, §8, §9

[14] = tested on: Mouse monoclonal antibody AM1-2E10; assay: Antigen panel (direct) ELISA, MoAb tissue culture supernatant; format: binding
Procedure: as §10, §11, §12, §5, §13, §14, §15, §16, §9

[15] = tested on: Mouse monoclonal antibody AM1-7F5; assay: as above; format: binding
Procedure: as §10, §11, §12, §5, §13, §14, §15, §16, §9

[16] = tested on: Mouse monoclonal antibody CSA-1H6; assay: as above; format: binding
Procedure: as §10, §11, §12, §5, §13, §14, §15, §16, §9

[17] = tested on: Mouse monoclonal antibody CSA-2G9; assay: as above; format: binding
Procedure: as §10, §11, §12, §5, §13, §14, §15, §16, §9

MoAb CSA-1H6 = assay: Inhibition ELISA to the CSA-DVS-HSA conjugate, MoAb; format: binding, mouse
Procedure: as §1, §2, §3, §4, §5, §6, §7
(§18) 9. Dilute alkaline phosphatase conjugated anti-mouse IgG (Pierce cat#31322) in PBS/0.1% TWEEN™ (polyoxyethylene-sorbitol) (v/v) to 1:5000 concentration. Add 100 μL per well and incubate at 37° C. for 60 min.
as §9

MoAb CSA-2G9 = assay: as above; format: binding, mouse
Procedure: as §1, §2, §3, §4, §5, §6, §7, §18, §9

MoAb AM1-2E10 = assay: as above; format: binding, mouse
Procedure: as §1, §2, §3, §4, §5, §6, §7, §8, §9

MoAb AM1-7F5 = assay: as above; format: binding, mouse
Procedure: as §1, §2, §3, §4, §5, §6, §7, §8, §9

[18] = tested on: Mouse monoclonal antibody AM19-1-7E12-1; assay: Antigen panel (direct) ELISA, MoAb tissue culture supernatant; format: binding
Procedure: as §10, §11, §12, §5, §13, §14, §15, §16, §9
(§19) Spleen cells from mice immunized with the AM19-1-DVS (1) conjugate have been used to prepare MoAb secreting hybridoma cells.

[19] = tested on: Mouse monoclonal antibody AM19-1-7E12-2; assay: as above; format: binding
Procedure: as §10, §11, §12, §5, §13, §14, §15, §16, §9, §19

MoAb AM19-1-7E12-1 = assay: Inhibition ELISA with AM19-1-DVS (1) coated ELISA plates, MoAb; format: binding, mouse; settings: AM19-1-7E12-1 TCS
Procedure: as §1, §2, §3, §4, §5, §6, §7, §8, §9

MoAb AM19-1-7E12-2 = assay: as above; format: binding, mouse; settings: AM19-1-7F12-2
Procedure: as §1, §2, §3, §4, §5, §6, §7, §8, §9

[20] = Mouse 1, inhibiting AG conc 0.156 μg/100 μL
[21] = Mouse 1, inhibiting AG conc 0.313 μg/100 μL
[22] = Mouse 1, inhibiting AG conc 1.25 μg/100 μL
[23] = Mouse 1, inhibiting AG conc 5 μg/100 μL
[24] = Mouse 1, inhibiting AG conc 10 μg/100 μL
[25] = Mouse 2, inhibiting AG conc 0.156 μg/100 μL
[26] = Mouse 2, inhibiting AG conc 0.313 μg/100 μL
[27] = Mouse 2, inhibiting AG conc 1.25 μg/100 μL
[28] = Mouse 2, inhibiting AG conc 5 μg/100 μL
[29] = Mouse 2, inhibiting AG conc 10 μg/100 μL

Molecule: KLH: keyhole limpet hemocyanin, protein carrier
- Percent Inhibition [1, 20]: 0%
- Percent Inhibition [1, 21]: 0%
- Percent Inhibition [1, 22]: 0%
- Percent Inhibition [1, 23]: 0%
- Percent Inhibition [1, 24]: 0%
- Percent Inhibition [1, 25]: 0%
- Percent Inhibition [1, 26]: 0%
- Percent Inhibition [1, 27]: 0%
- Percent Inhibition [1, 28]: 0%
- Percent Inhibition [1, 29]: 0%
- antibody response to the KLH carrier [2]: significant response
- antibody titres to the KLH carrier [3]: Significant antibody titres
- antibody titres to the KLH carrier protein [4]: significant antibody titres
- antibody response to the KLH carrier [5]: significant response
- Percent Inhibition ([6]; Mouse 1): 8.9%
- Percent Inhibition ([6]; Mouse 2): 5.8%
- antibody titres to the KLH carrier protein [7]: significant antibody titres
- antibody titres to the KLH carrier protein [8]: significant antibody titres
- Percent Inhibition ([9]; Mouse 1): 0%
- Percent Inhibition ([9]; Mouse 2): 0%
- Percent Inhibition ([10]; Mouse 3): 0%
- Percent Inhibition ([10]; Mouse 4): 0%
- Percent Inhibition [11]: 0%
- Percent Inhibition ([12]; Mouse 5): 0%
- Percent Inhibition ([12]; Mouse 6): 0%
- Percent Inhibition ([13]; Mouse 1): 12.3%
- Percent Inhibition ([13]; Mouse 2): 35.8%
- Percent reactivity ([14]; AM1-2E10, OD to test antigen / OD to CSA-DVS-HSA × 100): 3.9%
- OD ([14]; AM1-2E10 TCS, coated test antigen): 0.061
- Percent reactivity ([15]; AM1-7F5, OD to test antigen / OD to CSA-DVS-HSA × 100): 0%
- OD ([15]; AM1-7F5 TCS, coated test antigen): 0
- Percent reactivity ([16]; CSA-1H6, OD to test antigen / OD to CSA-DVS-HSA × 100): 0%
- OD ([16]; CSA-1H6 TCS, coated test antigen): 0
- Percent reactivity ([17]; CSA-2G9, OD to test antigen / OD to CSA-DVS-HSA × 100): 0%
- OD ([17]; CSA-2G9 TCS, coated test antigen): 0.026
- Percent Inhibition of TCS (MoAb CSA-1H6; CSA-1H6 TCS, Table 16, CSA-DVS-HSA conjugate): 0%
- Percent Inhibition of TCS (MoAb CSA-2G9; CSA-2G9 TCS, Table 16, CSA-DVS-HSA conjugate): 4.8%
- Percent Inhibition of TCS (MoAb AM1-2E10; AM1-2E10 TCS, Table 18, CSA-DVS-HSA coated plate): 0%
- Percent Inhibition of TCS (MoAb AM1-7F5; AM1-7F51, TCS, Table 18, CSA-DVS-HSA coated plate): 22.5%
- Percent reactivity ([18]; AM19-1-7E12-1, OD to test antigen / OD to AM19-1-DVS (1)-HSA × 100): 0%
- OD ([18]; AM19-1-7E12-1 TCS, coated test antigen): 0.023
- Percent reactivity ([19]; AM19-1-7E12-2, OD to test antigen / OD to AM19-1-DVS (1)-HSA × 100): 0%
- OD ([19]; AM19-1-7E12-2 TCS, coated test antigen): 0
- Percent Inhibition of TCS (MoAb AM19-1-7E12-1): 3.8%
- Percent Inhibition of TCS (MoAb AM19-1-7E12-2): 4.3%

Molecule: C=CCC1C=C(C)CC(C)CC(OC)C2OC(O)(C(=O)C(=O)N3CCCCC3C(=O)OC(C(C)=CC3CCC(O)C(OC)C3)C(C)C(O)CC1=NO)C(C)CC2OC (centres unmarked) [III]
- Percent Inhibition (MoAb CSA-1H6; CSA-1H6, Table 24, CSA, CSG and CSA derivative inhibitors): 5.5%
- Percent Inhibition (MoAb CSA-2G9; CSA-2G9, Table 24, CSA, CSG and CSA derivative inhibitors): 21.9%
- Percent Inhibition (MoAb AM1-2E10; AM1-2E10, Table 24, CSA, CSG and CSA derivative inhibitors): 17.8%
- Percent Inhibition (MoAb AM1-7F5; AM1-7F5, Table 24, CSA, CSG and CSA derivative inhibitors): 16.6%

Molecule: FK-DVS-KLH: FK-DVS-KLH conjugate used as inhibitor
- Percent Inhibition [1, 20]: 0%
- Percent Inhibition [1, 21]: 0%
- Percent Inhibition [1, 22]: 0%
- Percent Inhibition [1, 23]: 0%
- Percent Inhibition [1, 24]: 0%
- Percent Inhibition [1, 25]: 0%
- Percent Inhibition [1, 26]: 0%
- Percent Inhibition [1, 27]: 0%
- Percent Inhibition [1, 28]: 0%
- Percent Inhibition [1, 29]: 0%
